How the values were obtained:
[1] = Sedimentation stability and color fastness of tinted varnish; assay type: physicochemical; conditions: 0.1% by weight in the varnish; one month at 45° C.
[2] = assay type: physicochemical
Procedure: (§1) Various cosmetic compositions in the form of nail varnish of the organic-solvent-based varnish type were prepared and applied to nails. The tests hereinafter were performed on these varnishes: • Gloss: 100 μm of varnish was applied to a Leneta-type panel. After drying, the gloss was measured at an angle of incidence of 60° using a Minolta 268 glossmeter. • Flexibility: An aluminum plate covered with a varnish of 300 μm wet is subjected to a slow stamping and the depth of the penetration is measured (ISO1520). • Varnish hardness: It was measured using a Persoz pendulum on a glass plate covered with a varnish with a thickness of 100 μm wet, after drying at room temperature, according to the ISO1522 standard. • Adhesion: A “cross hatch test” is carried out on a glass plate. A score of 0 corresponds to an absence of loss of adhesion. A score of 5 corresponds to a total loss of adhesion. • Solids content: Between 0.5 and 1 g of varnish is poured into a dish. […] The stability of this shade, and more specifically the appearance or not of any syneresis, is observed. • Odor: The odor of the varnish is compared to that of a varnish not containing any hardening agent. • Viscosity: The viscosity of the product is measured at 25° C. using a Brookfield viscometer. […]

[3] = Viscosity, Brookfield viscometer; assay type: physicochemical; conditions: concentrations of less than 1% by weight
Procedure: as §1

nails of the hand = assay: In vivo test of nail hardening on panels of 30 persons; parameters: species or system human; conditions: 0.05% by weight in the varnish composition, three weeks
Text: The varnish was applied under normal conditions of use (namely one application every three days, after having removed the previous varnish). Comparative composition 5 contained 0.05% of hexane, comparative composition 6 contained 0.05% by weight of citral, comparative composition 9 contained 0.05% by weight of caproic acid and composition 7 according to the present invention contained 0.05% by weight of sorbic acid. […] The respective compositions and also the results of the physical tests and observed by the panelists are collated in table 2 hereinafter.

discoloration of the shade [1]	influence on the stability of the varnish composition [2]	maximum amount that can be incorporated into the varnish without causing yellowing [2]	influence on the viscosity of the varnish composition [3]	Compound	subjects who found an overall improvement in the quality and the hardness of their nails (nails of the hand)
discolors the Pigment Red 34	–	–	–	O=P(O)(O)O [Phosphoric acid]	–
–	does not have any influence	less than 1 % by weight	does not have any influence	C/C=C/C=C/C(=O)O [sorbic acid]	more than 83%

Reference: patent publication US20210236412A1, “COSMETIC COMPOSITION OF NON-AQUEOUS THIXOTROPIC NAIL VARNISH CONTAINING A NAIL-HARDENING AGENT, USE AND IMPLEMENTATION METHOD” (FIABILA, priority 2018, published 2021)
